Assay results reported in patent publication US9980943B2, “Methods of treating muscular dystrophy” (BOARD OF REGENTS OF THE NEVADA SYSTEM OF HIGHER EDUCATION, …, priority 2013, dated 2018).

How the values were obtained:
Assay type in all cases: cell-based, mouse
[1] = system: α7 integrin (LacZ reporter in α7βgal+/− myoblasts); experiment: Myoblast α7+/LacZ integrin FDG assay (Burkin assay in myoblasts, 96-well); conditions: α7+/LacZ myoblasts, 96-well
[2] = system: α7 integrin (LacZ reporter in α7+/LacZ myotubes); experiment: Myotube α7 integrin FDG assay (Burkin assay in myotubes, 96-well); conditions: myotubes
[3] = system: β-galactosidase in CMV-LacZ C2C12 myotubes; experiment: CMV-LacZ secondary screen in C2C12 myotubes (β-Gal stabilizing assay); conditions: C2C12 CMV-LacZ myotubes, fold relative to DMSO
In short: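 CMV-LacZ C2C12 line (clonal, FDG-screened); myoblasts/myotubes dosed 0.5–40 μM (0.5, 1, 5, 10, 20, 40 μM); n=2 per point; β-gal stabilization read-out.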

[4] = system: β-galactosidase in CMV-LacZ C2C12 myoblasts; experiment: CMV-LacZ secondary screen in C2C12 myoblasts (β-Gal stabilizing assay); conditions: CMV-LacZ C2C12 myoblasts
In short: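 β-gal stabilization was measured in C2C12 myoblasts or myotubes stably transfected with a CMV-driven LacZ construct, using the FDG β-gal assay. Compounds were tested in dose-response at 0.5, 1, 5, 10, 20 and 40 μM, with two replicates per point.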

Structure (SMILES) | Burkin Assay in Myoblasts, signal relative to DMSO ([1]; 0.5 uM) | Burkin Assay in Myoblasts, signal relative to DMSO ([1]; 1 uM) | Burkin Assay in Myoblasts, signal relative to DMSO ([1]; 5 uM) | Burkin Assay in Myoblasts, signal relative to DMSO ([1]; 10 uM) | Burkin Assay in Myoblasts, signal relative to DMSO ([1]; 20 uM) | Burkin Assay in Myoblasts, signal relative to DMSO ([1]; 40 uM) | Burkin Assay in Myotubes, α7 integrin LacZ reporter signal relative to DMSO ([2]; 0.5 uM) | Burkin Assay in Myotubes, α7 integrin LacZ reporter signal relative to DMSO ([2]; 1 uM) | Burkin Assay in Myotubes, α7 integrin LacZ reporter signal relative to DMSO ([2]; 5 uM) | Burkin Assay in Myotubes, α7 integrin LacZ reporter signal relative to DMSO ([2]; 10 uM) | Burkin Assay in Myotubes, α7 integrin LacZ reporter signal relative to DMSO ([2]; 20 uM) | Burkin Assay in Myotubes, α7 integrin LacZ reporter signal relative to DMSO ([2]; 40 uM) | CMV-LACZ in Myotubes, signal relative to DMSO ([3]; 0.5 uM) | CMV-LACZ in Myotubes, signal relative to DMSO ([3]; 1 uM) | CMV-LACZ in Myotubes, signal relative to DMSO ([3]; 5 uM) | CMV-LACZ in Myotubes, signal relative to DMSO ([3]; 10 uM) | CMV-LACZ in Myotubes, signal relative to DMSO ([3]; 20 uM) | CMV-LACZ in Myotubes, signal relative to DMSO ([3]; 40 uM) | CMV-LACZ in Myoblasts (β-galactosidase activity relative to DMSO) ([4]; 0.5 uM) | CMV-LACZ in Myoblasts (β-galactosidase activity relative to DMSO) ([4]; 1 uM) | further results
COc1ccccc1NS(=O)(=O)c1cc(NC(=O)c2ccc(Cl)nc2)ccc1N1CCCC1 [MLS002248819-01] | 1.126 | 1.113 | 1.068 | 1.0849 | 0.8184 | 0.7689 | 1.117 | 1.198 | 1.066 | 1.24 | 0.9243 | 0.8508 | 1.0819 | 0.9505 | 1.1171 | 1.1534 | 0.9847 | 1.1929 | 0.9206 | 1.2206 | CMV-LACZ in Myoblasts (β-galactosidase activity relative to DMSO) ([4]; 5 uM): 1.2604; CMV-LACZ in Myoblasts (β-galactosidase activity relative to DMSO) ([4]; 10 uM): 1.1575; CMV-LACZ in Myoblasts (β-galactosidase activity relative to DMSO) ([4]; 20 uM): 1.7330; CMV-LACZ in Myoblasts (β-galactosidase activity relative to DMSO) ([4]; 40 uM): 1.0270
COc1cc(C=O)ccc1OCC(=O)Nc1ccc2c(c1)OCO2 [MLS001123876-01] | 1.041 | 0.8264 | 1.44 | 1.095 | 0.9339 | 0.8844 | 0.866 | 0.8193 | 1.1689 | 1.232 | 0.7114 | 1.003 | 0.8962 | 1.4943 | 0.9002 | 0.9279 | 0.9880 | 1.0300 | 0.8260 | 1.0263 | CMV-LACZ in Myoblasts (β-galactosidase activity relative to DMSO) ([4]; 5 uM): 0.9251; CMV-LACZ in Myoblasts (β-galactosidase activity relative to DMSO) ([4]; 10 uM): 0.9871; CMV-LACZ in Myoblasts (β-galactosidase activity relative to DMSO) ([4]; 20 uM): 0.9618; CMV-LACZ in Myoblasts (β-galactosidase activity relative to DMSO) ([4]; 40 uM): 0.7333
Cc1ccccc1NC(=O)c1ccc2c(O)c(S(=O)(=O)c3ccccc3)c(=O)[nH]c2c1 [MLS001122698-01] | 0.9829 | 0.8573 | 1.008 | 0.9652 | 0.9061 | 0.8389 | 0.9131 | 0.9039 | 0.9575 | 1.03 | 0.9209 | 0.8572 | 1.0019 | 1.0133 | 1.2038 | 1.1482 | 1.0340 | 1.0110 | 1.1513 | 1.1003 | CMV-LACZ in Myoblasts (β-galactosidase activity relative to DMSO) ([4]; 5 uM): 0.7759; CMV-LACZ in Myoblasts (β-galactosidase activity relative to DMSO) ([4]; 10 uM): 0.8608; CMV-LACZ in Myoblasts (β-galactosidase activity relative to DMSO) ([4]; 20 uM): 1.0404; CMV-LACZ in Myoblasts (β-galactosidase activity relative to DMSO) ([4]; 40 uM): 1.0639
O=C(NCc1ccccc1)C(c1c(F)cccc1Cl)N(C(=O)c1csnn1)C1CC1 (stereo not drawn) [MLS001221908-01] | 1.051 | 0.9531 | 0.9306 | 0.8812 | 1.433 | 0.5684 | 1.197 | 0.9589 | 0.889 | 0.9693 | 0.818 | 0.7406 | 0.8562 | 0.9171 | 0.9745 | 1.1838 | 1.0770 | 0.8850 | 0.9663 | 0.7607 | CMV-LACZ in Myoblasts (β-galactosidase activity relative to DMSO) ([4]; 5 uM): 0.9357; CMV-LACZ in Myoblasts (β-galactosidase activity relative to DMSO) ([4]; 10 uM): 0.7908; CMV-LACZ in Myoblasts (β-galactosidase activity relative to DMSO) ([4]; 20 uM): 0.9726; CMV-LACZ in Myoblasts (β-galactosidase activity relative to DMSO) ([4]; 40 uM): 0.6789
COc1ccc(C(=O)Nc2ccc(Cl)cn2)cc1Cl [MLS000089748-01] | 1.145 | 1.168 | 0.8656 | 0.7355 | 0.2402 | 0.1766 | 1.043 | 0.9139 | 0.8675 | 0.8026 | 0.7715 | 0.7415 | 0.9527 | 0.9809 | 1.1104 | 0.9813 | 1.3800 | 1.2820 | 1.2129 | 0.8592 | CMV-LACZ in Myoblasts (β-galactosidase activity relative to DMSO) ([4]; 5 uM): 1.0665; CMV-LACZ in Myoblasts (β-galactosidase activity relative to DMSO) ([4]; 10 uM): 0.9905; CMV-LACZ in Myoblasts (β-galactosidase activity relative to DMSO) ([4]; 20 uM): 0.3140; CMV-LACZ in Myoblasts (β-galactosidase activity relative to DMSO) ([4]; 40 uM): 0.4437
N#Cc1nc(COc2ccccc2)oc1N1CCCC1 [MLS000036988-01] | 1.189 | 1.0825 | 0.8657 | 0.8256 | 0.9023 | 0.6581 | 0.8553 | 0.7577 | 0.8099 | 0.8223 | 0.4172 | 0.104 | 0.9867 | 0.8905 | 0.8979 | 1.0868 | 0.7116 | 0.5021 | 1.0767 | 1.0846 | CMV-LACZ in Myoblasts (β-galactosidase activity relative to DMSO) ([4]; 5 uM): 0.9702; CMV-LACZ in Myoblasts (β-galactosidase activity relative to DMSO) ([4]; 10 uM): 1.0435; CMV-LACZ in Myoblasts (β-galactosidase activity relative to DMSO) ([4]; 20 uM): 0.8796; CMV-LACZ in Myoblasts (β-galactosidase activity relative to DMSO) ([4]; 40 uM): 0.6578
